Experimental findings from paper PMC9519396, “First thermostable CLIP-tag by rational design applied to an archaeal O^6-alkyl-guanine-DNA-alkyl-transferase” (Computational and Structural Biotechnology Journal, 2022) are described below.

For the test, the target named is T1, SsOGT-MC^8 (Saccharolobus solfataricus, UniProt Q97VW7, G105N/G130P/K110E/M106T/R102A/S100A/S109D/S132L).
T1 construct: gene ogt; TSCLIP; synthetic gene with eight substitutions, Y90 kept; His6-tag, pHTP1, E. coli BL21 Rosetta2 (DE3), Ni-NTA purified; 8AES holds no ligand
T1 sequence (Q97VW7 1-151 S100A/R102A/G105N/M106T/S109D/K110E/G130P/S132L): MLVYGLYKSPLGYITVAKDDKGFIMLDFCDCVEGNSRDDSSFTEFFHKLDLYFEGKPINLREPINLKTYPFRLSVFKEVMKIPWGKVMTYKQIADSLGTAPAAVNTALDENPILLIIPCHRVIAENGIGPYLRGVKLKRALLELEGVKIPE
As to the kind of experiment: competitive labelling with BC-TMR, SDS-PAGE fluorescence gel imaging. The class given is biochemical. From the text: competitive labelling with BC-TMR, SDS-PAGE fluorescence gel imaging on SsOGT-MC^8

Molecules are shown by their SMILES.

In general, IC50 refers to the concentration needed to halve the response being measured. A lower IC50 goes with greater potency in that assay. In turn, `[N-]=[N+]=NCCCCCC(=O)NCc1ccc(COc2nccc(N)n2)cc1` [BC-2] gave an IC50 of 128 ± 31.1 µM.
